From PubChem BioAssay (NCI)
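96-well plates; 48 h exposure; 5 concentrations. Endpoints by linear interpolation between flanking doses. Not reached: highest tested concentration assigned. Here, GI50 denotes the concentration required for 50% inhibition of growth. TGI: total growth inhibition.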

Tests used:
Test in all cases: NCI anticancer screen, dose series, 48 h; in the data active means GI50 below about 0.43 µM; inactive means the rest
[1] = system: SF-539 CNS
[2] = system: OVCAR-5 ovarian
[3] = system: SF-295 CNS
[4] = system: NCI-H23 lung
[5] = system: SK-MEL-2 melanoma
[6] = system: M14 melanoma
[7] = system: SN12C renal
[8] = system: PC-3 prostate
[9] = system: DU-145 prostate
[10] = system: K-562 leukemia
[11] = system: SNB-19 CNS
[12] = system: HOP-92 NSCLC
[13] = system: IGROV1 ovarian
[14] = system: HS 578T breast
[15] = system: TK-10 renal
[16] = system: MDA-MB-231 breast
[17] = system: CCRF-CEM leukemia
[18] = system: SR leukemia
[19] = system: HCT-116 colon
[20] = system: SW-620 colon
[21] = system: NCI/ADR-RES ovarian
[22] = system: OVCAR-4 ovarian
[23] = system: NCI-H522 lung
[24] = system: 786-0 renal
[25] = system: ACHN renal
[26] = system: KM12 colon
[27] = system: HT29 colon
[28] = system: COLO 205 colon
[29] = system: MDA-MB-435
[30] = system: SK-OV-3 ovarian
[31] = system: BT-549 breast
[32] = system: T-47D breast
[33] = system: UACC-257 melanoma
[34] = system: OVCAR-8 ovarian
[35] = system: RPMI-8226 leukemia
[36] = system: UO-31 renal
[37] = system: A549 NSCLC
[38] = system: HL-60(TB) leukemia
[39] = system: HCT-15 colon
[40] = system: MOLT-4 leukemia
[41] = system: MCF7 breast
[42] = system: NCI-H226 lung
[43] = system: SK-MEL-5 melanoma
[44] = system: LOX IMVI melanoma
[45] = system: HOP-62 NSCLC
[46] = system: OVCAR-3 ovarian
[47] = system: NCI-H460 lung
[48] = system: A498 renal
[49] = system: RXF 393 renal
[50] = system: SNB-75 CNS
[51] = system: U251 CNS
[52] = system: CAKI-1 renal
[53] = system: HCC-2998 colon
[54] = system: SK-MEL-28 melanoma
[55] = system: SF-268 CNS
[56] = system: MALME-3M melanoma
[57] = system: EKVX NSCLC
[58] = system: UACC-62 melanoma

C[C@H]1[C@@H](OCC(CO[C@H]2O[C@@H]3O[C@@]4(C)CC[C@H]5[C@H](C)CC[C@@H]([C@H]2C)[C@@]35OO4)=NOCC(=O)O)OC2O[C@@]3(C)CC[C@H]4[C@H](C)CC[C@@H]1[C@@]24OO3 (some centres undefined)
20.9 µM: TGI [1]
14 µM: TGI [51]
11.3 µM: TGI [36]
17.3 µM: TGI [3]
13.3 µM: TGI [38] | TGI [44]
22.2 µM: TGI [57]
0.422 µM: TGI [28]
13.7 µM: TGI [19]
18.7 µM: TGI [11]
0.889 µM: TGI [55]
21.3 µM: TGI [13]
13 µM: TGI [26]
20.7 µM: TGI [31]
19.5 µM: TGI [47]
5.25 µM: TGI [29]
20.8 µM: TGI [53]
17.6 µM: TGI [41]
0.331 µM: TGI [32]
13.5 µM: TGI [8]
2.41 µM: TGI [16]
1.02 µM: TGI [7]
20.1 µM: TGI [42]
15.9 µM: TGI [37]
23 µM: TGI [24]
12.5 µM: TGI [17]
11.8 µM: TGI [18]
18 µM: TGI [20]
16.4 µM: TGI [21] | TGI [33] | TGI [34]
14.9 µM: TGI [43]
8.61 µM: TGI [40]
15.5 µM: TGI [58]
18.2 µM: TGI [22]
11.4 µM: TGI [23]
3.12 µM: TGI [52]
4.57 µM: TGI [15]
19.6 µM: TGI [30] | TGI [48]
22.4 µM: TGI [14]
18.1 µM: TGI [4]
0.891 µM: TGI [39]
14.5 µM: TGI [25]
18.8 µM: TGI [6]
20.6 µM: TGI [54]
21.7 µM: TGI [45]
17.5 µM: TGI [10]
15.8 µM: TGI [49]
15 µM: TGI [27]
active: GI50 [3] 0.1 µM | GI50 [4] < 0.0283 µM | GI50 [5] 0.346 µM | GI50 [6] 0.205 µM | GI50 [7] 0.0215 µM | GI50 [8] < 0.01 µM | GI50 [10] < 0.01 µM | GI50 [12] < 0.01 µM | GI50 [13] 0.0673 µM | GI50 [15] 0.0408 µM | GI50 [16] 0.12 µM | GI50 [17] < 0.01 µM | GI50 [18] < 0.01 µM | GI50 [19] < 0.01 µM | GI50 [20] < 0.0137 µM | GI50 [22] 0.0565 µM | GI50 [23] < 0.0151 µM | GI50 [24] 0.112 µM | GI50 [25] 0.188 µM | GI50 [26] < 0.0166 µM | GI50 [27] < 0.01 µM | GI50 [28] < 0.0195 µM | GI50 [29] 0.02 µM | GI50 [32] < 0.01 µM | GI50 [33] 0.0266 µM | GI50 [34] 0.0332 µM | GI50 [35] < 0.01 µM | GI50 [36] 0.0968 µM | GI50 [37] 0.0865 µM | GI50 [38] < 0.01 µM | GI50 [39] < 0.01 µM | GI50 [40] < 0.01 µM | GI50 [41] 0.212 µM | GI50 [42] 0.0375 µM | GI50 [43] 0.0288 µM | GI50 [44] < 0.01 µM | GI50 [45] 0.229 µM | GI50 [46] < 0.0188 µM | GI50 [47] 0.0537 µM | GI50 [49] 0.0821 µM | GI50 [51] < 0.0114 µM | GI50 [52] 0.117 µM | GI50 [55] < 0.0231 µM | GI50 [56] < 0.0245 µM | GI50 [57] 0.0982 µM | GI50 [58] 0.0336 µM
15.4 µM: TGI [50]
28.1 µM: TGI [9]
0.0621 µM: TGI [12]
inactive: GI50 [1] 0.442 µM | GI50 [2] 0.497 µM | GI50 [9] 10.8 µM | GI50 [11] 0.613 µM | GI50 [14] 0.719 µM | GI50 [21] 0.525 µM | GI50 [30] 0.786 µM | GI50 [31] 0.473 µM | GI50 [48] 1.76 µM | GI50 [50] 0.698 µM | GI50 [53] 1.28 µM | GI50 [54] 0.756 µM
30.3 µM: TGI [2]
14.8 µM: TGI [5]

CC(C)(C)OC(=O)N1CCC23CCCC2C(=O)CC=C13 (centres undefined)
71.9 µM: TGI [33]
> 100 µM: TGI [1] | TGI [2] | TGI [3] | TGI [4] | TGI [5] | TGI [6] | TGI [7] | TGI [8] | TGI [9] | TGI [10] | TGI [11] | TGI [12] | TGI [13] | TGI [14] | TGI [15] | TGI [16] | TGI [17] | TGI [18] | TGI [19] | TGI [20] | TGI [21] | TGI [22] | TGI [23] | TGI [24] | TGI [25] | TGI [26] | TGI [27] | TGI [28] | TGI [29] | TGI [30] | TGI [31] | TGI [32] | TGI [34] | TGI [36] | TGI [37] | TGI [38] | TGI [39] | TGI [40] | TGI [41] | TGI [42] | TGI [43] | TGI [44] | TGI [45] | TGI [46] | TGI [47] | TGI [49] | TGI [50] | TGI [51] | TGI [52] | TGI [53] | TGI [54] | TGI [55] | TGI [56] | TGI [57] | TGI [58]
